According to ChEMBL document CHEMBL1201862, “PubChem BioAssay data set” (2004):
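Five compound concentrations were applied to cells in 96-well plates for 48 hours; endpoints were derived by simple linear interpolation of the resulting dose-response curve. Abbreviation: GI50, concentration required for 50% inhibition of growth.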 The source made the active and inactive calls. Rule as the data show it: active = GI50 up to about 1.1 µM and inactive = higher.

Tests used:
Assay in all cases: NCI tumour cell line growth inhibition, 48 h
[1] = system: Malme-3M
[2] = system: SK-MEL-5
[3] = system: OVCAR-4
[4] = system: DU-145
[5] = system: COLO 205
[6] = system: SW-620
[7] = system: CCRF-CEM
[8] = system: SN12C
[9] = system: NCI-H226
[10] = system: SF-295
[11] = system: UACC-257
[12] = system: SK-MEL-28
[13] = system: UACC-62
[14] = system: PC-3
[15] = system: MCF7
[16] = system: U-251
[17] = system: SNB-19
[18] = system: MOLT-4
[19] = system: OVCAR-5
[20] = system: T47D

SMILES | GI50 [1] | GI50 [2] | GI50 [3] | GI50 [4] | GI50 [5] | GI50 [6] | GI50 [7] | GI50 [8] | GI50 [9] | GI50 [10] | GI50 [11] | GI50 [12] | GI50 [13] | GI50 [14] | GI50 [15] | GI50 [16] | GI50 [17] | GI50 [18] | GI50 [19] | GI50 [20]
COc1ccc(C2=C(N)c3ccccc3C2=O)cc1 | > 100 µM (inactive) | > 100 µM (inactive) | 96.4 µM (inactive) | > 100 µM (inactive) | > 100 µM (inactive) | > 100 µM (inactive) | > 100 µM (inactive) | > 100 µM (inactive) | 45.6 µM (inactive) | 37.3 µM (inactive) | > 100 µM (inactive) | > 100 µM (inactive) | > 100 µM (inactive) | > 100 µM (inactive) | > 100 µM (inactive) | 33.9 µM (inactive) | 25.7 µM (inactive) | > 100 µM (inactive) | > 100 µM (inactive) | > 100 µM (inactive)
NC(Cc1ccccc1)c1nn[nH]n1 (stereo not given) | > 100 µM (inactive) | > 100 µM (inactive) | > 100 µM (inactive) | > 100 µM (inactive) | > 100 µM (inactive) | > 100 µM (inactive) | > 100 µM (inactive) | > 100 µM (inactive) | > 100 µM (inactive) | > 100 µM (inactive) | > 100 µM (inactive) | > 100 µM (inactive) | > 100 µM (inactive) | > 100 µM (inactive) | > 100 µM (inactive) | > 100 µM (inactive) | > 100 µM (inactive) | < 0.01 µM (active) | > 100 µM (inactive) | > 100 µM (inactive)
NC(=O)c1cc2ccc(O)cc2o/c1=N/c1ccccc1 | 50.8 µM (inactive) | 18.4 µM (inactive) | 42.3 µM (inactive) | 43.2 µM (inactive) | 18.5 µM (inactive) | 26.2 µM (inactive) | 37.5 µM (inactive) | 22.3 µM (inactive) | 17.1 µM (inactive) | 43.5 µM (inactive) | 39.3 µM (inactive) | 35.6 µM (inactive) | 28.5 µM (inactive) | 37.7 µM (inactive) | 31.2 µM (inactive) | 34.7 µM (inactive) | 36 µM (inactive) | 29 µM (inactive) | 67.9 µM (inactive) | 16 µM (inactive)
O=C(C1OC1c1ccc(Cl)cc1)C12CC3CC(CC(C3)C1)C2 (stereo not given) | 22.4 µM (inactive) | 14.5 µM (inactive) | 15.4 µM (inactive) | 29.1 µM (inactive) | 19.5 µM (inactive) | 20.3 µM (inactive) | 19 µM (inactive) | 14.7 µM (inactive) | 18.3 µM (inactive) | 18.2 µM (inactive) | 21.6 µM (inactive) | 16.5 µM (inactive) | 15.4 µM (inactive) | 29 µM (inactive) | 33.7 µM (inactive) | 15.4 µM (inactive) | 31.5 µM (inactive) | 20 µM (inactive) | 24.2 µM (inactive) | 31.6 µM (inactive)
COC(=O)c1cc2c3c(c1)Oc1cc(C(=O)OC)cc4c1C3c1c(cc(C(=O)OC)cc1O4)O2 | 8.99 µM (inactive) | 2.92 µM (inactive) | 34 µM (inactive) | 5.14 µM (inactive) | 23.7 µM (inactive) | 35 µM (inactive) | 11.4 µM (inactive) | 32.7 µM (inactive) | 3.82 µM (inactive) | 10.6 µM (inactive) | 27.4 µM (inactive) | 34 µM (inactive) | 16.9 µM (inactive) | 10.4 µM (inactive) | 10.6 µM (inactive) | 12.3 µM (inactive) | 20 µM (inactive) | 7.41 µM (inactive) | 24.5 µM (inactive) | 20 µM (inactive)
O=C(N/S(=N/S(=O)(=O)c1ccc(Br)cc1)C(Cl)(Cl)Cl)c1ccccc1 (stereo not given) | > 100 µM (inactive) | > 100 µM (inactive) | > 100 µM (inactive) | > 100 µM (inactive) | > 100 µM (inactive) | > 100 µM (inactive) | > 100 µM (inactive) | > 100 µM (inactive) | > 100 µM (inactive) | > 100 µM (inactive) | > 100 µM (inactive) | > 100 µM (inactive) | > 100 µM (inactive) | > 100 µM (inactive) | > 100 µM (inactive) | > 100 µM (inactive) | > 100 µM (inactive) | > 100 µM (inactive) | > 100 µM (inactive) | > 100 µM (inactive)
CCOP(=O)(OCC)C(C#N)Cc1ccco1 (stereo not given) | > 10 µM (inactive) | > 10 µM (inactive) | > 10 µM (inactive) | 1.98 µM (inactive) | > 10 µM (inactive) | > 10 µM (inactive) | > 10 µM (inactive) | > 10 µM (inactive) | > 10 µM (inactive) | > 10 µM (inactive) | > 10 µM (inactive) | > 10 µM (inactive) | > 10 µM (inactive) | > 10 µM (inactive) | > 10 µM (inactive) | > 10 µM (inactive) | > 10 µM (inactive) | > 10 µM (inactive) | > 10 µM (inactive) | > 10 µM (inactive)
CC(C)(C)NNc1c([N+](=O)[O-])cnn(-c2ccccc2)c1=O | 4.05 µM (inactive) | 4.51 µM (inactive) | 3.59 µM (inactive) | 12.8 µM (inactive) | 4.63 µM (inactive) | 1.76 µM (inactive) | 0.944 µM (active) | 3.14 µM (inactive) | 7.96 µM (inactive) | 6.28 µM (inactive) | 4.6 µM (inactive) | 2.49 µM (inactive) | 3.5 µM (inactive) | 1.83 µM (inactive) | 2.92 µM (inactive) | 3.2 µM (inactive) | 11.2 µM (inactive) | 2.13 µM (inactive) | 8.81 µM (inactive) | 2.29 µM (inactive)
c1ccc2c(c1)CN1CCCC1CN2 (stereo not given) | > 100 µM (inactive) | > 100 µM (inactive) | > 100 µM (inactive) | > 100 µM (inactive) | > 100 µM (inactive) | > 100 µM (inactive) | > 100 µM (inactive) | > 100 µM (inactive) | > 100 µM (inactive) | > 100 µM (inactive) | > 100 µM (inactive) | > 100 µM (inactive) | > 100 µM (inactive) | > 100 µM (inactive) | > 100 µM (inactive) | > 100 µM (inactive) | > 100 µM (inactive) | > 100 µM (inactive) | > 100 µM (inactive) | > 100 µM (inactive)
Cc1nc(-n2nc(-c3ccccc3)cc2-c2ccccc2)sc1C(=O)/C=C/c1ccc([N+](=O)[O-])cc1 | 34.2 µM (inactive) | 16.6 µM (inactive) | 34.1 µM (inactive) | 21.8 µM (inactive) | 24.4 µM (inactive) | 21.4 µM (inactive) | 14 µM (inactive) | 29.1 µM (inactive) | 57.8 µM (inactive) | > 46.6 µM (inactive) | 34.5 µM (inactive) | 28.7 µM (inactive) | 19.4 µM (inactive) | 17.2 µM (inactive) | 5.74 µM (inactive) | 16 µM (inactive) | 24.2 µM (inactive) | 10.9 µM (inactive) | > 59.4 µM (inactive) | 9.25 µM (inactive)
CC(C)SC(=S)Sc1c(Cl)c(Cl)nc(Cl)c1Cl | 15.7 µM (inactive) | 14.8 µM (inactive) | 13.6 µM (inactive) | 3.94 µM (inactive) | 8.55 µM (inactive) | 2.88 µM (inactive) | 1.91 µM (inactive) | 13 µM (inactive) | 24.9 µM (inactive) | 16.3 µM (inactive) | 3.52 µM (inactive) | 18.7 µM (inactive) | 9.35 µM (inactive) | 4.93 µM (inactive) | 4.06 µM (inactive) | 3.98 µM (inactive) | 7.55 µM (inactive) | 2.65 µM (inactive) | 16.3 µM (inactive) | 1.96 µM (inactive)
C[N+]1(C)[C@@H]2CC[C@H]1C[C@@H](OC(=O)C(CO)c1ccccc1)C2 (stereo not given in full) [ATROPINE METHYLBROMIDE] | > 100 µM (inactive) | > 100 µM (inactive) | > 100 µM (inactive) | > 100 µM (inactive) | > 100 µM (inactive) | > 100 µM (inactive) | > 100 µM (inactive) | > 100 µM (inactive) | > 100 µM (inactive) | > 100 µM (inactive) | > 100 µM (inactive) | > 100 µM (inactive) | > 100 µM (inactive) | > 100 µM (inactive) | > 100 µM (inactive) | > 100 µM (inactive) | > 100 µM (inactive) | > 100 µM (inactive) | > 100 µM (inactive) | > 100 µM (inactive)
